According to PMC6597039, “Bioactive secondary metabolites from new endophytic fungus Curvularia. sp isolated from Rauwolfia macrophylla” (PLoS ONE, 2019):
Values after ≈ are worked out from the molar mass of the structure shown.

Legend:
[1] = test system: Escherichia coli, Micrococcus luteus, Pseudomonas agarici and Staphylococcus warneri; assay: In vitro antibacterial assay, MIC over all the tested bacterial strains; type: cell-based; details: range over four bacterial strains; read-out: MIC ranging over all the tested bacterial strains
[2] = molecular target: Electric eel AChE (Electrophorus electricus, UniProt O42275); assay: biochemical; details: substrate ATCI, pH 8.0, 25 °C, read-out: IC50 acetylcholinesterase inhibition
[3] = test system: Staphylococcus warneri (DSMZ20036); assay: In vitro antibacterial assay, micro-dilution MIC; type: cell-based; details: 37 °C, 24 h
[4] = test system: p53-HDM2 interaction; parameters: method as in PMID 16246554; details: cited from earlier work
[5] = test system: Pseudomonas agarici (DSMZ11810); assay: In vitro antibacterial assay, micro-dilution MIC; type: cell-based; details: 30 °C, 24 h
[6] = DPPH free radical scavenging assay; details: Table 3, unit not given in the table (μM); read-out: EC50 Antioxidant activity (DPPH•)
[7] = test system: Escherichia coli (DSMZ1058); assay: In vitro antibacterial assay, micro-dilution MIC; type: cell-based; details: Escherischia coli, 37 °C, 24 h
[8] = ABTS+ free radical scavenging assay; details: Table 3, unit not given in the table (μM); read-out: EC50 Antiradical activity (ABTS+)
[9] = test system: Micrococcus luteus (DSMZ1605); assay: In vitro antibacterial assay, micro-dilution MIC; type: cell-based; details: 30 °C, 24 h
[10] = test system: mucosal-type mast cells; details: cited from earlier work
[11] = test system: Trypanosoma cruzi trypomastigotes; parameters: method as in PMID 28572816; details: cited from earlier work

Chain of Electric eel AChE (O42275 24-633): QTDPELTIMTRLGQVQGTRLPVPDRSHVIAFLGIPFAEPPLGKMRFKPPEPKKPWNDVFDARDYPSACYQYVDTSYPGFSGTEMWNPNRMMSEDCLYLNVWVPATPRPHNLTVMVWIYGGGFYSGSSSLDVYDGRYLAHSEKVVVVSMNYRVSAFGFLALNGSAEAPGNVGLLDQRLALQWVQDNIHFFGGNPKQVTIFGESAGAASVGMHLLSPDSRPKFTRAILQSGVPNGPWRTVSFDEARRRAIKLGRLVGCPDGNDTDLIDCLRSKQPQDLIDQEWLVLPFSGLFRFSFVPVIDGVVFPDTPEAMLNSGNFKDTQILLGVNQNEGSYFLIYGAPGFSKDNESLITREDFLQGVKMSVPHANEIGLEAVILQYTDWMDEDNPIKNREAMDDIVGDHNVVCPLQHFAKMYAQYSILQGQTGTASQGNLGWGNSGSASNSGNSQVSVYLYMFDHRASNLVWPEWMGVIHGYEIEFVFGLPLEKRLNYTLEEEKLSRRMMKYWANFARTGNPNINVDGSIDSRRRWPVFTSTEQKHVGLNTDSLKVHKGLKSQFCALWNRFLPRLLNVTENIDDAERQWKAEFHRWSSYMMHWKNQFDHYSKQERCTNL

SMILES	MIC [1] [µg/mL]	IC50 [2] [µM]	MIC [3] [µg/mL]	inhibition of p53-HDM2 interaction [4]	MIC [5] [µg/mL]	EC50 [6] [µM]	MIC [7] [µg/mL]	EC50 [8] [µM]	MIC [9] [µg/mL]	effect on the activity of mucosal-type mast cells [10]	IC50 anti-Trypanosoma cruzi activity against trypomastigotes [11] [µg/mL]
C=C(C(=O)O)C(CCCCCC)C(=O)O (stereo not drawn) [Compound 2, hexylitaconic acid]	0.17 to 0.58 (≈ 0.793 to 2.71 µM)	1.54	0.58 (≈ 2.71 µM)	inhibitor	0.29 (≈ 1.35 µM)	0.56 ± 0.02	0.58 (≈ 2.71 µM)	0.88 ± 0.02	0.29 (≈ 1.35 µM)	–	–
Cc1cc(C(C)(C)C)c(O)c(C(C)(C)C)c1 [BHT, butylated hydroxytoluene, reference compound]	–	–	–	–	–	0.46	–	0.06	–	–	–
CNC(C)C1CCC(N)C(OC2C(N)CC(N)C(OC3OCC(C)(O)C(NC)C3O)C2O)O1 (stereo not drawn) [Gentamicin, reference compound]	–	–	0.01 (≈ 0.0209 µM)	–	0.01 (≈ 0.0209 µM)	–	0.01 (≈ 0.0209 µM)	–	0.01 (≈ 0.0209 µM)	–	–
COc1ccc(O)c(C(C)(C)C)c1 [BHA, butylated hydroxyanisole, reference compound]	–	–	–	–	–	0.13	–	0.01	–	–	–
O=C1CC(O)C(CO)O1 (stereo not drawn) [Compound 1, 2'-deoxyribolactone]	0.17 to 0.58 (≈ 1.29 to 4.39 µM)	1.93	0.17 (≈ 1.29 µM)	–	0.19 (≈ 1.44 µM)	0.66 ± 0.02	0.3 (≈ 2.27 µM)	0.49 ± 0.02	0.32 (≈ 2.42 µM)	–	–
CC(C)[C@@H](C)/C=C/[C@@H](C)[C@H]1CC[C@H]2C3=CC=C4C[C@@H](O)CC[C@]4(C)[C@H]3CC[C@]12C [Compound 3, ergosterol]	–	1.52	–	–	–	1.09 ± 0.02	–	0.83 ± 0.02	–	inhibitory effect	51.3 (≈ 129 µM)
